# Measurements taken from patent US4505929A, “Sulfur-substituted diphenyl ethers having antiviral activity” (The Dow Chemical Company, priority 1982, dated 1985).
# Where two headings read alike, the source gives them in different places.
# Assays:
# Type in all cases: cell-based
# [1] = system: rhinovirus type 1A (RV-1A); experiment: Tissue culture antiviral test (HeLa cells), RV-1A; details: Enterovirus, 48 and 72 hours post-treatment, read-out: Lowest concentration necessary to cause a 50 percent reduction in cytopathic effect, RV-1A
# Method: (§1) Monolayered HeLa cells in 16 millimeter (mm) tissue culture dishes were treated with 1 ml of culture medium (Eagles medium supplemented with fetal calf serum) containing subject compound at an appropriate concentration or containing no compound at all. Culture media such as those described herein are more fully described in standard texts, as for example, Kuchler's Biochemical Methods in Cell Culture and Virology, Dowden, Hutchinson and Ross, Inc., Stroudsberg, PA (1977). Following treatment, cells were challenged with 0.05 ml of rhinovirus type 1A (RV-1A), rhinovirus type 2 (RV-2) or Coxsackie A21 virus (Cox A21) in culture medium. Some of the compounds were also tested against rhinovirus type 5 (RV-5), rhinovirus type 8 (RV-8) or rhinovirus type 64 (RV-64). Cell controls received no viruses.
# (§2) ^xx Lowest concentration of the compound (μg/ml) necessary to caus
# (§3) a 50 percent reduction in cytopathic effect.
# [2] = system: Coxsackie A21 virus (Cox A21); experiment: Tissue culture antiviral test (HeLa cells), Cox A21; details: 48 and 72 hours post-treatment, read-out: Lowest concentration necessary to cause a 50 percent reduction in cytopathic effect, Cox A21
# Method: as §1, §2, §3
# [3] = Cytotoxicity to HeLa cells in tissue culture testing; details: human
# Method: as §1
# ^x Cytotoxicity figures represent the concentration of the compound,
# micrograms/milliliter (μg/ml) found to be toxic to the cell.
# means "approximately "; "<<" "considerably less than " and "G.I." means
# rhinovirus type 2 (RV-2) = experiment: Tissue culture antiviral test (HeLa cells), RV-2; details: Enterovirus, 48 and 72 hours post-treatment, read-out: Lowest concentration necessary to cause a 50 percent reduction in cytopathic effect, RV-2
# Method: as §1, §2, §3
# [4] = G.I. = growth inhibition: at the concentration shown the compound inhibited growth of the tissue culture, read-out: Cytotoxicity (G.I.)
# [5] = concentration found to be toxic to the cell, observed at 48 and 72 hours, read-out: Cytotoxicity
EC50 [1],EC50 [2],EC50 (rhinovirus type 2 (RV-2)),SMILES,"MCC [3, 4]","MCC [3, 5]"
1.25 µg/mL,0.625 µg/mL,1.25 µg/mL,"CS(=O)(=O)c1ccc(Oc2ccc(Cl)cc2)cc1 [Example 2, 4-(4-(Methylsulfonyl)phenoxy)-1-chlorobenzene]",10 µg/mL,
< 3.12 µg/mL,< 3.12 µg/mL,< 3.12 µg/mL,"CSc1ccc(Oc2ccc(C#N)cc2)cc1 [Example 5, 4-(4-(Methylthio)phenoxy)benzonitrile]",,6.25 µg/mL
3.12 µg/mL,3.12 µg/mL,3.12 µg/mL,"C[S+]([O-])c1ccc(Oc2ccc(C#N)cc2)cc1 (centres unmarked) [Example 7, 4-(4-(Methylsulfinyl)phenoxy)benzonitrile]",,25 µg/mL
,6.25 µg/mL,6.25 µg/mL,"O=S(=O)(c1ccccc1)c1ccc(Oc2ccc(Cl)c(Cl)c2)cc1 [Example 10, 4-(4-(Phenylsulfonyl)phenoxy)-1,2-dichlorobenzene]",,50 µg/mL
0.625 µg/mL,0.625 µg/mL,0.625 µg/mL,"CN(C)S(=O)(=O)c1ccc(Oc2ccc(S(=O)(=O)c3ccccc3)cc2)cc1 [Example 11, N,N-Dimethyl-4-(4-(phenylsulfonyl)phenoxy)benzenesulfonamide]",,1.25 µg/mL
,50 µg/mL,,"CN(C)S(=O)(=O)c1ccc(Oc2ccc(S(C)(=O)=O)cc2)cc1 [Example 12, N,N-Dimethyl-4-(4-(methylsulfonyl)phenoxy)benzenesulfonamide]",100 µg/mL,
50 µg/mL,25 µg/mL,,"CCN(CC)S(=O)(=O)c1ccc(Oc2ccc(S(C)(=O)=O)cc2)cc1 [Example 13, N,N-Diethyl-4-(4-(methylsulfonyl)phenoxy)benzenesulfonamide]",100 µg/mL,
12.5 µg/mL,12.5 µg/mL,≤ 6.25 µg/mL,"CS(=O)(=O)c1ccc(Oc2ccc(Cl)c(Cl)c2)c(Cl)c1 [Example 14, 4-(2-Chloro-4-(methylsulfonyl)phenoxy)-1,2-dichlorobenzene]",,50 µg/mL
,,6.25 µg/mL,"CS(=O)(=O)c1ccc(Oc2ccc(Cl)c(Cl)c2)c([N+](=O)[O-])c1 [Example 15, 4-(4-(Methylsulfonyl)-2-nitrophenoxy)-1,2-dichlorobenzene]",,> 100 µg/mL
< 6.25 µg/mL,6.25 µg/mL,6.25 µg/mL,"CS(=O)(=O)c1ccc(Oc2ccc(Cl)c(Cl)c2)c(N)c1 [Example 16, 2-(3,4-Dichlorophenoxy)-5-(methylsulfonyl)benzenamine]",,≤ 6.25 µg/mL
12.5 µg/mL,12.5 µg/mL,25 µg/mL,"CS(=O)(=O)c1ccc(Oc2ccc(Cl)c(Cl)c2)c(C#N)c1 [Example 17, 2-(3,4-Dichlorophenoxy)-5-(methylsulfonyl)benzonitrile]",,> 100 µg/mL
~25 µg/mL,,~25 µg/mL,"CS(=O)(=O)c1ccc(Oc2ccc(O)cc2)cc1 [Example 21, 4-(4-(Methylsulfonyl)phenoxy)phenol]",,25 µg/mL
12.5 µg/mL,< 3.12 µg/mL,6.25 µg/mL,"O=S(=O)(c1ccc(Oc2ccc(Cl)c(Cl)c2)cc1)C(F)(F)F [Example 25, 4-(4-((Trifluoromethyl)sulfonyl)phenoxy)-1,2-dichlorobenzene]",,> 50 µg/mL
6.25 µg/mL,≤ 6.25 µg/mL,≤ 6.25 µg/mL,"CSc1ccc(Oc2ccc([N+](=O)[O-])cc2)cc1 [Example 27, 1-(Methylthio)-4-(4-nitrophenoxy)benzene]",,12.5 µg/mL

SMILES,EC50 [1],EC50 [2],EC50 (rhinovirus type 2 (RV-2)),"MCC [3, 4]","MCC [3, 5]"
"CSc1ccc(Oc2ccc([N+](=O)[O-])cc2[N+](=O)[O-])cc1 [Example 28, 1-(4-(Methylthio)phenoxy)-2,4-dinitrobenzene]",≤ 6.25 µg/mL,≤ 6.25 µg/mL,< 6.25 µg/mL,50 to 100 µg/mL,
"C[S+]([O-])c1ccc(Oc2ccc([N+](=O)[O-])cc2[N+](=O)[O-])cc1 (centres unmarked) [Example 30, 1-(4-(Methylsulfinyl)phenoxy)-2,4-dinitrobenzene]",,6.25 µg/mL,~6.25 µg/mL,,12.5 µg/mL
